This is an account of results in PubChem BioAssay (NCI).

Experiment in all cases: inhibition of tumour cell growth, NCI panel, 48 h
Assay [1] relates to HCT-15 colon.
The subject of assay [2] is HL-60(TB) leukemia.
The test system of assay [3] is M14 melanoma.
Assay [4] concerns MCF7 breast.
Assay [5] has as its system TK-10 renal.
Assay [6] concerns SK-MEL-5 melanoma.
Assay [7] deals with SNB-19 CNS.
In assay [8] the test system is COLO 205 colon.
Assay [9] has as its system IGROV1 ovarian.
Assay [10] relates to SN12C renal.
In assay [11] the test system is UACC-257 melanoma.
Assay [12] concerns OVCAR-3 ovarian.
Assay [13] has as its system CCRF-CEM leukemia.
Assay [14] deals with RPMI-8226 leukemia.
Assay [15] concerns U251 CNS.
Assay [16] has as its system OVCAR-8 ovarian.
In assay [17] the test system is MDA-MB-435.
Assay [18] concerns LOX IMVI melanoma.
The subject of assay [19] is MOLT-4 leukemia.

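96-well plates; 48 h exposure; 5 concentrations. Endpoints by linear interpolation between flanking doses. Not reached: highest tested concentration assigned. TGI denotes the concentration required for complete inhibition of growth.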

As to `COC1(OC)CCCc2c1no[n+]2[O-]`, the TGI in [1], in assay [2], in [3], in [4], in assay [5] and in assay [6] was more than 100 µM each time. Besides, the TGI in assay [7], in assay [8], in [9], in [10], in assay [11] and in assay [12] was more than 100 µM throughout. Moreover, the TGI in assay [13], in [14], in assay [15], in assay [16], in assay [17] and in assay [18] was more than 100 µM in each case. This compound also registered a TGI in assay [19] of more than 100 µM.

For the compound `NCC(=O)Nc1ccc(S(=O)(=O)O)c2cc(S(=O)(=O)O)cc(S(=O)(=O)O)c12`, the TGI in [1], in assay [2], in [3], in assay [4], in assay [5] and in assay [6] was more than 100 µM throughout. Further, the TGI in assay [7], in [8], in assay [9], in assay [10], in assay [11] and in [12] was more than 100 µM in each case. Moreover, the TGI in assay [13], in assay [14], in assay [15], in assay [16], in assay [17] and in assay [18] was more than 100 µM in each case. The TGI in [19] is more than 100 µM.

For `CCOC(=O)/C=C(\C(=O)OCC)n1ccc(=O)n(Cc2cn(CCCCOC(C)=O)nn2)c1=O`, the TGI was 25.3 µM in assay [1]; 1.25 µM in assay [2]; 54.8 µM in assay [3]; 23.8 µM in assay [4]; 13.6 µM in [5]; more than 54.2 µM in assay [6]. For the same compound, the TGI in [7] was more than 55.6 µM; in assay [8], more than 36.2 µM; in assay [9], 43 µM; in [10], 43 µM; in assay [11] it was 32.9 µM; in assay [12], 29.2 µM. For the same compound, the TGI in assay [13] was 4.59 µM; in assay [14], more than 36 µM; in assay [15], 30.9 µM; in [16], 20.1 µM; in assay [17] it was 18.1 µM; in assay [18] it was 48.1 µM. The TGI in assay [19] turned out to be 9.12 µM.

With `O=c1oc2c/c(=C\c3ccc([N+](=O)[O-])cc3)c(=O)c3cccc1c3-2`, the TGI in assay [1] was more than 100 µM; in assay [2] it was more than 100 µM; in [3] it was more than 100 µM; in assay [4], more than 100 µM; in assay [5], 72.1 µM; in assay [6] it was more than 100 µM. The TGI in [7], in assay [8], in assay [9], in assay [10], in assay [11] and in assay [12] was more than 100 µM throughout. For the same compound, the TGI in [13], in assay [14], in assay [15], in assay [16], in [17] and in [18] was more than 100 µM each time. This compound also showed a TGI in assay [19] of more than 100 µM.

As to `CCOC(=O)c1sc2c(c1OC(=O)c1ccc(OC)cc1)c(=O)n(-c1ccccc1)c(=S)n2-c1ccccc1`, the TGI in assay [1], in [2], in assay [3], in assay [4], in assay [5] and in [6] was more than 100 µM throughout. In addition, the TGI in assay [7], in assay [8], in [9], in assay [10], in assay [11] and in assay [12] was more than 100 µM each time. The TGI in assay [13], in [14], in [15], in assay [16], in assay [17] and in [18] was more than 100 µM each time. Moreover, the TGI in assay [19] is more than 100 µM.

For the compound `CC1C=CN(N(C)C)C2=C1C(=O)c1cnccc1C2=O` (stereo not drawn), the TGI in assay [1] was 1.23 µM; in [2], 4.66 µM; in [3], 1.62 µM; in assay [4] it was 0.986 µM; in [5] it was 1.44 µM; in assay [6] it was 0.894 µM. The TGI in assay [7] is 2.31 µM; in [8], 2.45 µM; in assay [9], 1.07 µM; in [10], 0.558 µM; in assay [11], 0.75 µM; in assay [12], 2.37 µM. Also, the TGI in assay [13] turned out to be 5.01 µM; in [14] it was 2.65 µM; in assay [15] it was 2.49 µM; in [16], 3.67 µM; in assay [17], 0.43 µM; in [18], 0.307 µM. In assay [19], this compound gave a TGI of 4.06 µM.

For `COC(=O)/C=C\C(C#N)(C#N)N=Cc1cc(Br)cs1`, the TGI was 6.37 µM in assay [1]; 0.12 µM in [2]; 6.48 µM in assay [3]; 4.49 µM in assay [4]; 8.45 µM in assay [5]; 18.3 µM in assay [6]. For the same compound, the TGI in assay [7] stood at 32.5 µM; in assay [8], 3.99 µM; in [9] it was 14.1 µM; in assay [10], 7.64 µM; in assay [11], 7.74 µM; in assay [12] it was 17.4 µM. In addition, the TGI in [13] is 2.38 µM; in [14], more than 71.3 µM; in assay [15], 29.3 µM; in assay [16] it was 11.1 µM; in [17] it was 8.34 µM; in [18], 4.51 µM. The compound further came in with a TGI in assay [19] of more than 100 µM.
